Reference: patent US7763585B2, “Methods for inhibiting tumor cell proliferation” (priority 2003, dated 2010)

Tests used:
Stat3 [1] = assay: EMSA of nuclear extracts from treated cells with constitutively-activated Stat3; format: cell-based, mouse and human; conditions: Src-transformed fibroblasts and human tumor cells, FIG. 3
Procedure: FIG. 3 is a photograph showing the evaluation of effects of platinum complexes on Stat3 activation analyzed by EMSA. Nuclear extracts prepared from malignant cells that contain constitutively-activated Stat3 and treated with platinum complexes for the indicated times were analyzed by EMSA using hSIE oligonucleotide probe. Extracts were prepared from v-Src-transformed NIH3T3/v-Src; human breast carcinoma MDA-MB-231; MDA-MB-435; and […]. Position of Stat3:DNA complex in gel is shown.
Nuclear extracts were prepared from cell lines and used for EMSA as previously described (Turkson et al., 1998; Yu et al., 1995; Garcia et al., 1997). In some cases, cells were pre-treated with platinum complexes for the indicated times prior to harvesting. Where cells were stimulated with EGF (6 ng/ml), duration of treatment was 15 min. Nuclear extracts were pre-incubated with compounds for 30 min at room temperature prior to incubation with radiolabeled probe. The ^32P-radiolabeled oligonucleotide probes used are hSIE (high affinity sis-inducible element, m67 variant, 5′-[…]-3′) (SEQ ID NO:1) that binds both Stat1 and Stat3 (Garcia et al., 1997; Wagner et al., 1990), MGFe (mammary gland factor element from the bovine β-casein gene promoter, 5′-[…]-3′) (SEQ ID NO:2) that binds Stat1 and Stat5 (Gouilleux et al., 1995; Seidel et al., 1995), the NF-κB binding oligo (5′-[…]-3′) (SEQ ID NO:3), and the oligonucleotide sequence from the DHFR promoter that binds E2F1.
The effects of platinum complexes on persistent activation of Stat3 in Src-transformed fibroblasts and human tumor cells were investigated. […] These studies were then extended to evaluate the effects of the platinum complexes on Stat3 transcriptional activity.

Stat1:Stat1 = target: T1, Stat1:Stat1 (Mus musculus, UniProt P42225); assay: EMSA, disruption of Stat1:Stat1 DNA-binding activity in vitro (hSIE probe); format: biochemical
T1 construct: endogenous in cells; host or cells: EGF-stimulated fibroblasts (nuclear extract)
T1 sequence (P42225 2-749 limits assumed): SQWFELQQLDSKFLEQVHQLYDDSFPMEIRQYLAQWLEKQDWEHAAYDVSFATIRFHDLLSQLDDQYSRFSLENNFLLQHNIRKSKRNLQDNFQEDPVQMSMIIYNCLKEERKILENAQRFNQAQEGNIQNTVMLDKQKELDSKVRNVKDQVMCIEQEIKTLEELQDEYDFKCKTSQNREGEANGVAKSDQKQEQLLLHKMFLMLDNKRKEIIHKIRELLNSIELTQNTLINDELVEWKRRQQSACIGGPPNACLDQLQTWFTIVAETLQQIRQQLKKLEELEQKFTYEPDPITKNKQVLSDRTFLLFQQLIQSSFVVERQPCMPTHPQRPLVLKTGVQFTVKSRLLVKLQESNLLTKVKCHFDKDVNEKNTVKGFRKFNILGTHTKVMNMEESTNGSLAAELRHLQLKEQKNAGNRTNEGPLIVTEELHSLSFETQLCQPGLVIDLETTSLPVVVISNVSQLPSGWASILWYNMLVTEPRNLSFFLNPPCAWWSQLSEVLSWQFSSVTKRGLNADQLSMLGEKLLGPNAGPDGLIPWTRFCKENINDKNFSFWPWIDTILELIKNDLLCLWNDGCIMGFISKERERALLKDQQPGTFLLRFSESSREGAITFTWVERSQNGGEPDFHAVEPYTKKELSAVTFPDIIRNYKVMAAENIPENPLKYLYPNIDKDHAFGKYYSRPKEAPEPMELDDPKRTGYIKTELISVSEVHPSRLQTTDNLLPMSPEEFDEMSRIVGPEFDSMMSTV
Procedure: (§1) FIGS. 1A-D are photographs showing EMSA analyses of DNA-binding activities and effects of platinum complexes. Nuclear extracts containing activated Stat1, Stat3 and Stat5 are treated with the indicated concentrations of platinum complex ISSCPA-1, ISSCPA-3, ISSCPA-7, or PtCl4 for 30 min at room temperature prior to incubation with radiolabeled oligonucleotide probes. […] Positions of complexes of DNA with STAT, E2F1 or NFκB (p65, p50) in gel are labeled. Control lanes represent nuclear extracts that are not pre-incubated with platinum complexes.
(§2) Nuclear extracts were prepared from cell lines and used for EMSA as previously described (Turkson et al., 1998; Yu et al., 1995; Garcia et al., 1997). In some cases, cells were pre-treated with platinum complexes for the indicated times prior to harvesting. Where cells were stimulated with EGF (6 ng/ml), duration of treatment was 15 min. Nuclear extracts were pre-incubated with compounds for 30 min at room temperature prior to incubation with radiolabeled probe. The ^32P-radiolabeled oligonucleotide probes used are hSIE (high affinity sis-inducible element, m67 variant, 5′-[…]-3′) (SEQ ID NO:1) that binds both Stat1 and Stat3 (Garcia et al., 1997; Wagner et al., 1990), MGFe (mammary gland factor element from the bovine β-casein gene promoter, 5′-AGATTTCTAGGAATTCAA-3′) (SEQ ID NO:2) that binds Stat1 and Stat5 (Gouilleux et al., 1995; Seidel et al., 1995), the NF-κB binding oligo (5′-[…]-3′) (SEQ ID NO:3), and the oligonucleotide sequence from the DHFR promoter that binds E2F1.
(§3) Platinum compounds were evaluated for inhibitory activity against STAT DNA-binding in vitro.

Stat5 = assay: EMSA, Stat5 DNA-binding activity in vitro (MGFe probe); format: biochemical, mouse; conditions: FIG. 1B
Procedure: as §1, §2, §3

Stat3:Stat3 = target: T2, Stat3:Stat3 (Mus musculus, UniProt P42227); assay: EMSA, disruption of Stat3:Stat3 DNA-binding activity in vitro (hSIE probe); format: biochemical; conditions: for Level of DNA-binding activity of Stat3 (EMSA): EGF-stimulated fibroblast nuclear extracts, 30 min preincubation, FIG. 1A
T2 construct: endogenous in cells; host or cells: EGF-stimulated fibroblasts (nuclear extract)
Procedure: as §1, §2, §3

Stat1:Stat3 = target: T3, Stat1:Stat3 (Mus musculus, UniProt P42225+P42227); assay: EMSA, disruption of Stat1:Stat3 DNA-binding activity in vitro (hSIE probe); format: biochemical
T3 construct: endogenous in cells; host or cells: EGF-stimulated fibroblasts (nuclear extract)
Procedure: as §1, §2, §3

CT26 colon tumors = assay: Mouse model of colon tumor, intra-tumoral injection; format: in vivo; conditions: direct intra-tumoral injection, monitored up to 9 days, FIG. 8
Procedure: (§4) FIGS. 8A-C show tumor regression induced by platinum (IV) chloride. Tumor models in mice using B16 melanoma and CT26 colon tumors both of which harbor constitutively-active Stat3 were treated by intra-tumoral injection with doses of platinum (IV) chloride and tumor sizes monitored every other day for up to 9 days. FIG. 8A is a photograph showing extracted tumor tissues were analyzed for Stat3 activity in in vitro DNA-binding assays and EMSA analysis. FIG. 8B and FIG. 8C show tumor sizes monitored by calipers plotted against days of treatment.
(§5) The antitumor efficacy of platinum (IV) chloride of the invention using mouse models of melanoma and colon tumors was evaluated. Established tumors were directly injected with doses of platinum (IV) chloride and tumor size subsequently monitored. […] In parallel studies, treated tumors were extracted and Stat3 activity determined on the basis of DNA-binding activity analyzed by EMSA. […] Together, the findings support inhibition of constitutively-active STATs by platinum (IV) chloride leads to regression of melanoma and colon tumors.

Stat3 [2] = target: T4, Stat3 (Mus musculus, UniProt P42227); assay: Stat3 DNA-binding activity (EMSA) in extracted treated tumors; format: in vivo; conditions: FIG. 8A
T4 construct: from tissue; host or cells: extracted B16 melanoma / CT26 colon tumour tissue from mice
Procedure: as §4, §5

B16 melanoma = assay: Mouse model of melanoma tumor, intra-tumoral injection; format: in vivo; conditions: direct intra-tumoral injection, monitored up to 9 days, FIG. 8
Procedure: as §4, §5

T2 sequence (P42227 2-770 limits assumed): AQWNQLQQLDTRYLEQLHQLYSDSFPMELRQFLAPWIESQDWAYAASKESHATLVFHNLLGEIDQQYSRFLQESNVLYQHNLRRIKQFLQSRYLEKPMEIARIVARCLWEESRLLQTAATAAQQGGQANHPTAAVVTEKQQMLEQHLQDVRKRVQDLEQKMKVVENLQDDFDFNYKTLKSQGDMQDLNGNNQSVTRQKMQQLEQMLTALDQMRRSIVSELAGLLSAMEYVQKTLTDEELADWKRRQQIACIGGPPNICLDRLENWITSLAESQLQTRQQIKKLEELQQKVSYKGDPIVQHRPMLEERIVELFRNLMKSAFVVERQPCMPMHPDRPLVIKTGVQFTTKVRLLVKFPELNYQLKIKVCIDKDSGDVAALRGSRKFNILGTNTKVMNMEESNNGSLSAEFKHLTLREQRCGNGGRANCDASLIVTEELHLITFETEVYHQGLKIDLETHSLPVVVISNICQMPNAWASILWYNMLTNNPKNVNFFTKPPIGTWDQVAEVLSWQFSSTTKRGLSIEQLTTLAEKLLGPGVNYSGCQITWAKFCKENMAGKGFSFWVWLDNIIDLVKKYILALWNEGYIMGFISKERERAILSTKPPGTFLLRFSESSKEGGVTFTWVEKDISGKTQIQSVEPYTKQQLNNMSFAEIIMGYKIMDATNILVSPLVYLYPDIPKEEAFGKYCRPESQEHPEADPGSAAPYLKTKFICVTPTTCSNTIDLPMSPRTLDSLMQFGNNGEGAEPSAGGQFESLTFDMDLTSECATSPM
T4 sequence (P42227 whole entry): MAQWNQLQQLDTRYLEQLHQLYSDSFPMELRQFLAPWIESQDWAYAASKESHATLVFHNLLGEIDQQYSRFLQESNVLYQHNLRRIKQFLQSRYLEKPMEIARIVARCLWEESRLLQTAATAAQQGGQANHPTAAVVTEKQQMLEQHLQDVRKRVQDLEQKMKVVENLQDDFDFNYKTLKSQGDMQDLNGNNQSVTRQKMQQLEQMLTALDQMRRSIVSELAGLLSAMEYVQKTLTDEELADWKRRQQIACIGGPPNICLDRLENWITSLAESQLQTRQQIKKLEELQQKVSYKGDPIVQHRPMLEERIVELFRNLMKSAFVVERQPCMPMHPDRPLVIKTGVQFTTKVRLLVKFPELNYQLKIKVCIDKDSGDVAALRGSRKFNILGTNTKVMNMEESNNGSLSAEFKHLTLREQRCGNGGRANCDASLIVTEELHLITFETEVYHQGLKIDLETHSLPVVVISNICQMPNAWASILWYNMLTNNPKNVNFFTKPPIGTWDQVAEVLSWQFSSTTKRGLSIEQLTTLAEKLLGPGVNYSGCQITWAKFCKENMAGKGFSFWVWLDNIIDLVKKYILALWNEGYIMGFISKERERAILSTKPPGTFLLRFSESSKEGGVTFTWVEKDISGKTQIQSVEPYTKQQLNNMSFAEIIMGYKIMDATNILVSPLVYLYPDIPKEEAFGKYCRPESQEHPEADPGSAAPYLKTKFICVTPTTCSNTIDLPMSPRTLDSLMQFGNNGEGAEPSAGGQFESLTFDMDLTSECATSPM
T3 sequence (P42227 2-770 limits assumed, one chain of several): as the sequence (P42227 2-770 limits assumed) above

Row | SMILES | Inhibition of constitutive Stat3 activation in treated cells (EMSA of nuclear extracts) (Stat3 [1]) | IC50 (Stat1:Stat1) [µM] | Level of DNA-binding activity of Stat1 (EMSA) (Stat1:Stat1; EGF-stimulated fibroblast nuclear extracts, 30 min preincubation, hSIE probe, FIG. 1A) | Inhibitory effect on Stat5 DNA-binding activity (EMSA) (Stat5) | Level of DNA-binding activity of Stat3 (EMSA) (Stat3:Stat3) | IC50 (Stat3:Stat3; nuclear extracts pre-incubated 30 min at room temperature, read-out: IC50 for disruption of STAT DNA-binding activity in vitro, Stat3:Stat3) [µM] | IC50 (Stat1:Stat3) [µM] | Tumor size, colon tumors (CT26 colon tumors) | Constitutively-active Stat3 in treated tumors (DNA-binding activity by EMSA) (Stat3 [2]) | Tumor size, melanoma tumors (B16 melanoma)
1 | N.N.[Cl][Pt][Cl] [Cisplatin, reference compound] | modest or negligible |  |  |  |  |  |  |  |  | 
2 | [Cl][Pt]1([Cl])[NH]CC[NH]1 [ISS CPA-3] | modest or negligible | 8.3 | dose-dependent reduction | much reduced inhibitory effect | dose-dependent reduction | 5.8 | 27 |  |  | 
3 | [Cl][Pt]([Cl])([Cl])[Cl] [platinum (IV) chloride] |  |  |  |  | disrupts DNA-binding activity of Stat3 |  |  | complete regression | strongly attenuated | complete regression
